Experimental data: PubChem BioAssay AID1982 (Sanford-Burnham Center for Chemical Genomics, 2009)
Calls of active or inactive are those of the source. No rule for the calls is given here.

Assays:
Test in all cases: kinase panel binding selectivity, selectivity assay, biochemical, KINOMEscan (AID 1982)
[1] = target: Serine/threonine-protein kinase pim-3 (Homo sapiens) (UniProt Q86V86); details: KINOMEscan 353-kinase binding panel, qPCR; PIM3; at 10 µM; hits give low values
[2] = target: Dual specificity protein kinase CLK1 (Homo sapiens) (UniProt P49759); details: KINOMEscan 353-kinase binding panel, qPCR, at 10 µM, hits give low values
[3] = system: MYO3A; details: KINOMEscan 353-kinase binding panel, qPCR, at 10 µM, hits give low values
[4] = system: DAPK2; details: KINOMEscan 353-kinase binding panel, qPCR, at 10 µM, hits give low values
[5] = system: CDC2L2; details: KINOMEscan 353-kinase binding panel, qPCR, at 10 µM, hits give low values
[6] = system: ADCK3; details: KINOMEscan 353-kinase binding panel, qPCR, at 10 µM, hits give low values
[7] = target: Insulin receptor (Homo sapiens) (UniProt P06213); details: KINOMEscan 353-kinase binding panel, qPCR; INSR; at 10 µM; hits give low values
Insulin receptor (Homo sapiens), sequence (P06213 whole entry, looked up): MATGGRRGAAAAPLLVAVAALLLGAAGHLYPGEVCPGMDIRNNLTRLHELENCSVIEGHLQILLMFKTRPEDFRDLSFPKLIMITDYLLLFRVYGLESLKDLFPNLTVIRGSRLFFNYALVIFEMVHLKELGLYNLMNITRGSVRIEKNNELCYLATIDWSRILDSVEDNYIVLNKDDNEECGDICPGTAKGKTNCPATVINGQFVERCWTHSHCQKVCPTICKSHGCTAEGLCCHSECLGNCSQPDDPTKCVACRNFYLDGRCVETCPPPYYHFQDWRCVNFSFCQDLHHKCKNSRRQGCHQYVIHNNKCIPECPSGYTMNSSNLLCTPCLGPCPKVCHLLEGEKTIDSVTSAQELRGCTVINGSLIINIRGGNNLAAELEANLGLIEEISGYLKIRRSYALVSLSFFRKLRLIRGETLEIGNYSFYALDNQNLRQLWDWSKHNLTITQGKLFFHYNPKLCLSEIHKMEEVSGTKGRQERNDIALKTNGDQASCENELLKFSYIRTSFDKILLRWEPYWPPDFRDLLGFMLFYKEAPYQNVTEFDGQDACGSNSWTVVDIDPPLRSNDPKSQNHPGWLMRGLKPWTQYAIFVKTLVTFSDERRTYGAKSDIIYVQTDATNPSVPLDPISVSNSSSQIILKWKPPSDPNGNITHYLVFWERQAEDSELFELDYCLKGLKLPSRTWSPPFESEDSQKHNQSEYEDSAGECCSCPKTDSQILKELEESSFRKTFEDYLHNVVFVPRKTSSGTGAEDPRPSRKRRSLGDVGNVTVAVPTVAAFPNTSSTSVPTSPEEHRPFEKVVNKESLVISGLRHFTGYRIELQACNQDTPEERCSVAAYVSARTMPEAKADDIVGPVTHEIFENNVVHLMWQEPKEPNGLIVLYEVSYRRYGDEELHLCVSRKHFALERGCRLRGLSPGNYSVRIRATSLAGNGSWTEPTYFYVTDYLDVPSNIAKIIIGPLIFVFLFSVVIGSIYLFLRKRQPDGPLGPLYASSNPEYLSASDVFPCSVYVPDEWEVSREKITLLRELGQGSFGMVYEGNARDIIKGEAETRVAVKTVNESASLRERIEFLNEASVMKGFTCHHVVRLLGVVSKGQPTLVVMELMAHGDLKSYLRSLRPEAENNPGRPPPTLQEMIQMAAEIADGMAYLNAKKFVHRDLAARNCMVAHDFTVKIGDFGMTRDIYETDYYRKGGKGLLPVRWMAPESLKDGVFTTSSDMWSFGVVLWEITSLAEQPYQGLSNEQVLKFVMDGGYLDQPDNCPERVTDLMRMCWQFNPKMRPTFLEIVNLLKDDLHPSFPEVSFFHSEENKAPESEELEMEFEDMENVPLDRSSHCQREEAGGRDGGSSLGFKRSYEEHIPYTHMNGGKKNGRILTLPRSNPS

[8] = system: LIMK2; details: KINOMEscan 353-kinase binding panel, qPCR, at 10 µM, hits give low values
[9] = target: Serine/threonine-protein kinase Chk1 (Homo sapiens) (UniProt O14757); details: KINOMEscan 353-kinase binding panel, qPCR; CHEK1; at 10 µM; hits give low values
Serine/threonine-protein kinase Chk1 (Homo sapiens), sequence (O14757 whole entry, looked up): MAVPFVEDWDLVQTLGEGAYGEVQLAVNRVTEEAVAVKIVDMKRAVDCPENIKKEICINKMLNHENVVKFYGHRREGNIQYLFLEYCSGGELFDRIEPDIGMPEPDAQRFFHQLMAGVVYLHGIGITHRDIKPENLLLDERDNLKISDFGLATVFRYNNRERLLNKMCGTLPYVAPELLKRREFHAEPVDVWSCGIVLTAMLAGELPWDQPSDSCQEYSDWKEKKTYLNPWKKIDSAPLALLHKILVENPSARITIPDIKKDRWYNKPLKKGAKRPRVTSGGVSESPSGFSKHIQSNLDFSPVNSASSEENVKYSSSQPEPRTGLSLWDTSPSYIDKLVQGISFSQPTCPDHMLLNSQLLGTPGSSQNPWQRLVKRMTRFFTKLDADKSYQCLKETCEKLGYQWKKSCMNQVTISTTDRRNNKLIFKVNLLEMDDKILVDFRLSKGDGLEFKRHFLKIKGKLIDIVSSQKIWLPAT

[10] = target: Fibroblast growth factor receptor 1 (Homo sapiens) (UniProt P11362); details: KINOMEscan 353-kinase binding panel, qPCR; FGFR1; at 10 µM; hits give low values
[11] = target: Serine/threonine-protein kinase D3 (Homo sapiens) (UniProt O94806); details: KINOMEscan 353-kinase binding panel, qPCR; PRKD3; at 10 µM; hits give low values
Serine/threonine-protein kinase D3 (Homo sapiens), sequence (O94806 whole entry, looked up): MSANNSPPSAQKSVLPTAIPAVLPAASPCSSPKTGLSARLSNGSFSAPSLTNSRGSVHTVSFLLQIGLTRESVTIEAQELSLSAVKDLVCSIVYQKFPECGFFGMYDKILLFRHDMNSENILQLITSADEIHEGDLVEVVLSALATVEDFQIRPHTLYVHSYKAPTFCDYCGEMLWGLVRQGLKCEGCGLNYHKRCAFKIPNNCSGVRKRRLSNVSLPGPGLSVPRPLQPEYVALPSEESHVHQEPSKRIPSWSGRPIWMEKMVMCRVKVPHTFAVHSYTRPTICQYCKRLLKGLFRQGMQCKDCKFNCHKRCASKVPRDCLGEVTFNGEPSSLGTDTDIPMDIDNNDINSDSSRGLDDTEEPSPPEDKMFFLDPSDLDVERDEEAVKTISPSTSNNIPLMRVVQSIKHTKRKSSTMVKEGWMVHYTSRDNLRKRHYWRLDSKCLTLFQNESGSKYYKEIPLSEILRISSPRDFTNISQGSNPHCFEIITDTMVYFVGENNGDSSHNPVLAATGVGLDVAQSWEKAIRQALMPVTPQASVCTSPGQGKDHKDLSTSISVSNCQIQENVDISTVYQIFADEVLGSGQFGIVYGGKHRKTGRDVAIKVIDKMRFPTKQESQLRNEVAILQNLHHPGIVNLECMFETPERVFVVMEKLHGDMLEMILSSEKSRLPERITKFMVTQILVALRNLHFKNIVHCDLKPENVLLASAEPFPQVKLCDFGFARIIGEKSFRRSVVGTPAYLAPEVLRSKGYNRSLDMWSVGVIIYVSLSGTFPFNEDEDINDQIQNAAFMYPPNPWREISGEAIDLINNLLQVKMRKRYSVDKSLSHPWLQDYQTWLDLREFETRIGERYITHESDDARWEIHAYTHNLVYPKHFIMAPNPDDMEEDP

[12] = system: DAPK1; details: KINOMEscan 353-kinase binding panel, qPCR, at 10 µM, hits give low values
[13] = system: MYLK; details: KINOMEscan 353-kinase binding panel, qPCR, at 10 µM, hits give low values
[14] = system: LATS2; details: KINOMEscan 353-kinase binding panel, qPCR, at 10 µM, hits give low values
[15] = system: DMPK; details: KINOMEscan 353-kinase binding panel, qPCR, at 10 µM, hits give low values
[16] = system: MAP3K4; details: KINOMEscan 353-kinase binding panel, qPCR, at 10 µM, hits give low values
[17] = system: ULK2; details: KINOMEscan 353-kinase binding panel, qPCR, at 10 µM, hits give low values
[18] = system: MLK1; details: KINOMEscan 353-kinase binding panel, qPCR, at 10 µM, hits give low values
[19] = system: DDR1; details: KINOMEscan 353-kinase binding panel, qPCR, at 10 µM, hits give low values
[20] = system: TNNI3K; details: KINOMEscan 353-kinase binding panel, qPCR, at 10 µM, hits give low values
[21] = target: Vascular endothelial growth factor receptor 1 (Homo sapiens) (UniProt P17948); details: KINOMEscan 353-kinase binding panel, qPCR; FLT1; at 10 µM; hits give low values
Vascular endothelial growth factor receptor 1 (Homo sapiens), sequence (P17948 whole entry, looked up): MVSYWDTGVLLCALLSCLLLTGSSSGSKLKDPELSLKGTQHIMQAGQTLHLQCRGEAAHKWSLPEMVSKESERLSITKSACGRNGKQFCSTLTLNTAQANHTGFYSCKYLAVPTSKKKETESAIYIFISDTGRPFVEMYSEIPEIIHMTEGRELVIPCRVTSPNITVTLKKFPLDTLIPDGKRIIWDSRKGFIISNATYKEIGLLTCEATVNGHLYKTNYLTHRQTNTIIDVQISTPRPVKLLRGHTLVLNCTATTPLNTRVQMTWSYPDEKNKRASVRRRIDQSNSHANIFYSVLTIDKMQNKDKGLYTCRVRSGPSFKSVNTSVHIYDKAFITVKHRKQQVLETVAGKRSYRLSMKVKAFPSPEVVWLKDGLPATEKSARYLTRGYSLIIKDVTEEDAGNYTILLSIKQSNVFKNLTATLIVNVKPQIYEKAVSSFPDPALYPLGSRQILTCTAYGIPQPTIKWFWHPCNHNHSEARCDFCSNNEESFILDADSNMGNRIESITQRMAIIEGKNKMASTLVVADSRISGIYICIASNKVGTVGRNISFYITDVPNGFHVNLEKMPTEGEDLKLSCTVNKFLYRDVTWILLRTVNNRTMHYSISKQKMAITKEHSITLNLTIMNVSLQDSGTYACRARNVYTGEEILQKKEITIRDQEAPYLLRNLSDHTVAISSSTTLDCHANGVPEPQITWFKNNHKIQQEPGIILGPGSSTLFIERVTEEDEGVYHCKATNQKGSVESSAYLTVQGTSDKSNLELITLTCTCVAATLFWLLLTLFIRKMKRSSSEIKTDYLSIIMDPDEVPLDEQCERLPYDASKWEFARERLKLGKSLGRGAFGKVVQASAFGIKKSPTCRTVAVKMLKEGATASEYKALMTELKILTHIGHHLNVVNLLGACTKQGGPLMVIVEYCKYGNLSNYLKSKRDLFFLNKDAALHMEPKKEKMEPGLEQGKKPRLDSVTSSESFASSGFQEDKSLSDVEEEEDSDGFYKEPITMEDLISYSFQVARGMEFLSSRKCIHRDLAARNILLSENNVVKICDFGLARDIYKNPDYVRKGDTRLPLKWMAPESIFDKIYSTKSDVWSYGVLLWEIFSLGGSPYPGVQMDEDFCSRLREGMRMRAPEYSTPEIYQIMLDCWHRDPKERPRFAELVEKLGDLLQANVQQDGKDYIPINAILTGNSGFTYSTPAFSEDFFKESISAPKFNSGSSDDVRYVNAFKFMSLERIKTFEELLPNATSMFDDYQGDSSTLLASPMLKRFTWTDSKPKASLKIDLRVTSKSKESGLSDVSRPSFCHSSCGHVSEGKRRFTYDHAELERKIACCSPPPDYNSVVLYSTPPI

[22] = system: MEK4; details: KINOMEscan 353-kinase binding panel, qPCR, at 10 µM, hits give low values
[23] = system: PRKCH; details: KINOMEscan 353-kinase binding panel, qPCR, at 10 µM, hits give low values
[24] = system: YANK3; details: KINOMEscan 353-kinase binding panel, qPCR, at 10 µM, hits give low values
[25] = system: PIK3CA; details: KINOMEscan 353-kinase binding panel, qPCR, at 10 µM, hits give low values
[26] = system: DCAMKL2; details: KINOMEscan 353-kinase binding panel, qPCR, at 10 µM, hits give low values
[27] = system: EPHA8; details: KINOMEscan 353-kinase binding panel, qPCR, at 10 µM, hits give low values
[28] = system: TAK1; details: KINOMEscan 353-kinase binding panel, qPCR, at 10 µM, hits give low values
[29] = system: RPS6KA6(Kin.Dom.1); details: KINOMEscan 353-kinase binding panel, qPCR, at 10 µM, hits give low values
[30] = target: Tyrosine-protein kinase SYK (Homo sapiens) (UniProt P43405); details: KINOMEscan 353-kinase binding panel, qPCR, at 10 µM, hits give low values
[31] = target: Mitogen-activated protein kinase 1 (Homo sapiens) (UniProt P28482); details: KINOMEscan 353-kinase binding panel, qPCR; ERK2; at 10 µM; hits give low values
[32] = target: Uncharacterized serine/threonine-protein kinase SBK3 (Homo sapiens) (UniProt P0C264); details: KINOMEscan 353-kinase binding panel, qPCR; SgK110; at 10 µM; hits give low values
Uncharacterized serine/threonine-protein kinase SBK3 (Homo sapiens), sequence (P0C264 whole entry, looked up, canonical isoform): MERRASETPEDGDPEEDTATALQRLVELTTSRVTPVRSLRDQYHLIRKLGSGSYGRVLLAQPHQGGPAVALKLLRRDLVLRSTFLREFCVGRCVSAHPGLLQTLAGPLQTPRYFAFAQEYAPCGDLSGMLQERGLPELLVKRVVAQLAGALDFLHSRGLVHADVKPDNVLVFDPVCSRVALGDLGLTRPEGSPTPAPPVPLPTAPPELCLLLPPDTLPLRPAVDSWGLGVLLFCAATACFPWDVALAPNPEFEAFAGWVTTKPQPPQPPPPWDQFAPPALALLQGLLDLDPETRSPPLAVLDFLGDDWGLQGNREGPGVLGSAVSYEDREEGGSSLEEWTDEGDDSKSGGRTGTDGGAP

[33] = target: Phosphorylase b kinase gamma catalytic chain, liver/testis isoform (Homo sapiens) (UniProt P15735); details: KINOMEscan 353-kinase binding panel, qPCR; PHKG2; at 10 µM; hits give low values
[34] = target: Serine/threonine-protein kinase 3 (Homo sapiens) (UniProt Q13188); details: KINOMEscan 353-kinase binding panel, qPCR; MST2; at 10 µM; hits give low values
[35] = system: MUSK; details: KINOMEscan 353-kinase binding panel, qPCR, at 10 µM, hits give low values
[36] = system: CHEK2; details: KINOMEscan 353-kinase binding panel, qPCR, at 10 µM, hits give low values
[37] = system: ACVR2A; details: KINOMEscan 353-kinase binding panel, qPCR, at 10 µM, hits give low values
[38] = system: CIT; details: KINOMEscan 353-kinase binding panel, qPCR, at 10 µM, hits give low values
[39] = system: CAMK1G; details: KINOMEscan 353-kinase binding panel, qPCR, at 10 µM, hits give low values
[40] = system: ERK8; details: KINOMEscan 353-kinase binding panel, qPCR, at 10 µM, hits give low values

Measured: percent of control binding

Cc1cc2nc(NCCCO)n(CC(=O)c3cc(C(C)(C)C)c(O)c(C(C)(C)C)c3)c2cc1C
inactive: [1] 100% | [2] 98% | [3] 89% | [4] 100% | [5] 100% | [6] 72% | [7] 94% | [8] 80% | [9] 100% | [10] 100% | [11] 100% | [12] 87% | [13] 80% | [14] 89% | [15] 93% | [16] 90% | [17] 84% | [18] 100% | [19] 100% | [20] 82% | [21] 100% | [22] 79% | [23] 100% | [24] 100% | [25] 78% | [26] 89% | [27] 88% | [28] 100% | [29] 97% | [30] 100% | [31] 89% | [32] 96% | [33] 100% | [34] 100% | [35] 100% | [36] 100% | [37] 88% | [38] 100% | [39] 88% | [40] 100%
